Experimental data from article PMC10399481, “Discovery and biological evaluation of novel CARM1/HDAC2 dual-targeting inhibitors with anti-prostate cancer agents” (Journal of Enzyme Inhibition and Medicinal Chemistry, 2023).
Entries after “also recorded” stand apart in the source; their conditions may differ. Like-named read-outs stand apart in the source and are kept apart here.

Experiments:
CARM1 = molecular target: T1, CARM1 (Homo sapiens, UniProt Q86X55); test: In vitro CARM1 inhibition assay (3H-SAM, Flashplate); assay type: biochemical; conditions: 30 min preincubation, pH 7.5
T1 construct: purchased Abcam (Cambridge, MA, USA)
T1 sequence (Q86X55 1-608): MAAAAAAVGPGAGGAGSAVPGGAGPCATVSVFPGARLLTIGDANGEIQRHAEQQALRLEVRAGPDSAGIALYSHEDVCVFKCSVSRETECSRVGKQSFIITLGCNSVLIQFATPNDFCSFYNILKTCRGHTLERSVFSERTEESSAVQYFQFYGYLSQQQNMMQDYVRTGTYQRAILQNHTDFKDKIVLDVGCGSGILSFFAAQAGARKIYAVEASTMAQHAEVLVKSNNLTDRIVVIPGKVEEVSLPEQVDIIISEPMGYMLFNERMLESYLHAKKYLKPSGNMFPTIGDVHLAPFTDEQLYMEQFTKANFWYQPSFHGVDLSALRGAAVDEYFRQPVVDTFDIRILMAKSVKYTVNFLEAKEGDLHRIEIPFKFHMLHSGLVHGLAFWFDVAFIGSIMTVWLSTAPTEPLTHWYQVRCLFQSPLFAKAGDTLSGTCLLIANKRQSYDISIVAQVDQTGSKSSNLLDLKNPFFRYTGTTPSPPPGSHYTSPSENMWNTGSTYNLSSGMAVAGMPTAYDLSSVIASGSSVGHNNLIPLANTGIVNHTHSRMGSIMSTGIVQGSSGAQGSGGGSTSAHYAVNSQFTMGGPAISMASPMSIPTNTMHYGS
Protocol: (§1) Hit compounds were purchased from WuXi AppTec.
In vitro CARM1 inhibition assays were conducted as previously described. Before the reaction began, CARM1 was preincubated with compounds for 30 min at room temperature. […] Assay was performed at the condition of pH 7.5. The assay was quenched through the addition of 300 µM unlabelled SAM. The quantity of ^3H-labeled peptide produced was measured by Flashplate on a Topcount reader.

HDAC2 = molecular target: T2, HDAC2 (Homo sapiens, UniProt Q92769); test: In vitro HDAC2 inhibition assay (Boc-Lys(acetyl)-AMC fluorogenic); assay type: biochemical
T2 construct: purchased Abcam (Cambridge, MA, USA)
Protocol: as §1
In vitro HDAC2 inhibition assays were performed as previously stated. Briefly, 50 µL of various concentrations of tested compounds were mixed with 10 µL of HDAC2 enzyme solution. After 5 min of 37 °C incubation, 40 µL of the luorogenic substrate Boc-Lys(acetyl)-AMC was added. The mixture was incubated at 37 °C for 30 min and stopped by adding 100 µL of developer containing trypsin and TSA. Then, fluorescence intensity was determined 20 min later at excitation and emission wavelengths of 390 and 460 nm, respectively, using a microplate reader. The IC50 values were determined by the GraphPad Prism 6 program based on a sigmoidal dose − response equation, and the inhibition rates were calculated using the fluorescence intensity readings of the tested wells in comparison to those of the control wells.

DU145 xenograft tumour = test: In vivo anticancer activity, DU145 xenograft; parameters: species or system BALB/c nude mice; conditions: 5, 10 and 20 mg/kg i.p., every four days, six times; dose-dependent
Protocol: The method of in vivo assay was described previously. We bought healthy female BALB/c nude mice from the animal experiment centre of Yangzhou University. All experiments involving animals were approved by the Animal Ethics Committee of China Pharmaceutical University. Mice were subcutaneously injected on the right flank with DU145 cells (200 µl, 1 × 10^7 cells). When tumour sizes reached 80–100 mm^3, mice were divided into four groups at random. Every four days for a total of six times, each group was injected intraperitoneally with the vehicle, CH-1 (5 mg/kg), CH-1 (10 mg/kg), and CH-1 (20 mg/kg). Tumour volume was measured every four days and calculated by the formula (c × c × d)/2 (c, the smallest diameter; d, the largest diameter).

RM-1 cells = test: MTT cell growth assay, RM-1; conditions: RM1, 72 h, read-out: RM-1 cell proliferation IC50
Protocol: (§2) The American Type Culture Collection (ATCC) (Manassas, VA, USA) provided the human cancer cell lines including DU145, RM-1, LAPC4, 22RV1, and PC-3, which was then cultured in Dulbecco’s modified Eagle’s medium (DMEM) with 1% penicillin-streptomycin and 10% foetal bovine serum (FBS) in a humidified environment with 5% CO2 at 37 °C.
(§3) Based on the experimental method published previously, cell lines were prepared in cell suspension (5 × 10^4 cells/mL) and seeded into a 96-well plate[59].

PC-3 cells = test: MTT cell growth assay, PC-3; conditions: Homo sapiens, PC-3, 72 h, read-out: PC-3 cell proliferation IC50
Protocol: The American Type Culture Collection (ATCC) (Manassas, VA, USA) provided the human cancer cell lines including DU145, RM-1, LAPC4, 22RV1, and PC-3, which was then cultured in Dulbecco’s modified Eagle’s medium (DMEM) with 1% penicillin-streptomycin and 10% foetal bovine serum (FBS) in a humidified environment with 5% CO2 at 37 °C. […] Hit compounds were purchased from WuXi AppTec.
as §3

DU145 cells = test: MTT cell growth assay, DU145; conditions: for inhibition at 1 µM: DU-145, read-out: DU145 (% inhibition rate, 1 μM)
Protocol: as §2, §3

LAPC4 cells = test: MTT cell growth assay, LAPC4; conditions: Homo sapiens, LAPC4, 72 h, read-out: LAPC4 cell proliferation IC50
Protocol: as §2, §3

22RV1 cells = test: MTT cell growth assay, 22RV1; conditions: Homo sapiens, 22Rv1, 72 h, read-out: 22RV1 cell proliferation IC50
Protocol: as §2, §3

[1] = test system: multiple prostate-related tumour cells (DU145, RM-1, LAPC4, 22RV1, PC-3); test: MTT cell growth assay, prostate cancer cell panel; conditions: Homo sapiens, read-out: anti-proliferative IC50 against prostate-related tumour cells
Protocol: as §2, §3

[2] = 37 °C, 30 min, read-out: HDAC2 (IC50)

T2 sequence (Q92769 whole entry): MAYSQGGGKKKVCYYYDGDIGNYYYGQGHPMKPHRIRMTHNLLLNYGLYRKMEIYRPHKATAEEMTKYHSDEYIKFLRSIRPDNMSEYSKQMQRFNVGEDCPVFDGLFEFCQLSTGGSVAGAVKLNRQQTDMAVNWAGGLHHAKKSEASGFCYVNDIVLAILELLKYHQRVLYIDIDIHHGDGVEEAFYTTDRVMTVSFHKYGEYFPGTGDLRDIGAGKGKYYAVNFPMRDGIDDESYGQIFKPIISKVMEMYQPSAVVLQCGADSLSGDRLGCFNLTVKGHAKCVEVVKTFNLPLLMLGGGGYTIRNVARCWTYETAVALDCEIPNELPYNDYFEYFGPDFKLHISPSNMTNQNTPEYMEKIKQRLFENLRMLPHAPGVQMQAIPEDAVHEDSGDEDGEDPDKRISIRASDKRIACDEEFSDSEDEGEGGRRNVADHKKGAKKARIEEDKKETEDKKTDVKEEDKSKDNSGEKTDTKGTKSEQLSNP

| IC50 (CARM1) [nM] | IC50 (HDAC2; [2]) [nM] | SMILES | inhibition at 1 µM (DU145 cells; Homo sapiens) [%] | other results |
| --- | --- | --- | --- | --- |
| 37.4 ± 1.65 | 13 ± 1.25 | CNCCNCc1cccc(-c2nc(Cl)c(C)c(Nc3cccc(OCCCCCCC(=O)NO)c3)n2)c1 [CH-6] | 86 | – |
| 58.5 ± 3.21 | 24.8 ± 1.53 | CNCCNCc1cccc(-c2nc(Nc3cccc(OCCCCCCC(=O)NO)c3)c(C)c(Oc3ccccc3)n2)c1 [CH-7] | 81 | – |

More lines, now with the values behind:

| SMILES | IC50 (CARM1) [nM] | IC50 (HDAC2; [2]) [nM] | inhibition at 1 µM (DU145 cells; Homo sapiens) [%] | other results |
| --- | --- | --- | --- | --- |
| CNCCNCc1cccc(-c2nc(Nc3cccc(OCCCCCCC(=O)NO)c3)c(C)c(-c3ccnc4[nH]ccc34)n2)c1 [CH-1] | 3.71 ± 0.11 | – | 97 | IC50 (HDAC2): 4.07 ± 0.25 nM; tumour volume / tumour growth versus vehicle (DU145 xenograft tumour): significantly inhibited tumour growth; also recorded: significantly reduced; also recorded: significant antitumour activity; IC50 (RM-1 cells): 710 nM; IC50 (PC-3 cells): 430 nM; IC50 (DU145 cells; Homo sapiens, DU-145, 72 h, read-out: DU145 cell proliferation IC50): 90 nM; inhibitory activity on DU145 cells relative to vorinostat (DU145 cells; ratio of IC50 values): five times stronger; IC50 (LAPC4 cells): 680 nM; IC50 (22RV1 cells): 950 nM; IC50 [1]: < 1000 nM |
| CNCCNCc1cccc(-c2nc(Nc3cccc(OCCCCCCC(=O)NO)c3)c(C)c(-c3c(C)noc3C)n2)c1 [CH-2] | 5.38 ± 0.54 | 8.33 ± 1.05 | 93 | – |
| CNCCNCc1cccc(-c2nc(Nc3cccc(OCCCCCCC(=O)NO)c3)c(C)c(-c3cccnc3)n2)c1 [CH-3] | 10.6 ± 0.93 | 5.83 ± 0.41 | 96 | – |
| CNCCNCc1cccc(-c2nc(Nc3cccc(OCCCCCCC(=O)NO)c3)c(C)c(-c3cc4cccc(OC)c4[nH]3)n2)c1 [CH-4] | 25.5 ± 1.12 | 9.18 ± 0.17 | 92 | – |
| CNCCNCc1cccc(-c2nc(Nc3cccc(OCCCCCCC(=O)NO)c3)c(C)c(-c3cc4ccccc4s3)n2)c1 [CH-5] | 30.1 ± 2.02 | 17.3 ± 1.96 | 85 | – |
| CNC[C@@H](O)COc1ccc(Cl)c(-c2nc(-c3c(C)noc3C)c(C)c(N3CC4(CCN(C(=O)OC)CC4)C3)n2)c1 [EZM2302, reference compound] | – | – | < 50 | HDAC2 (IC50, nM) (HDAC2; 37 °C, 30 min): no inhibition |
| O=C(CCCCCCC(=O)Nc1ccccc1)NO [vorinostat, reference compound] | – | – | – | CARM1 (IC50, nM) (CARM1): no inhibitory effect; also recorded: no inhibition |
